Test results reported in patent US9365868B2, “Fermentation process for producing isopropanol using a recombinant microorganism” (LANZATECH NEW ZEALAND LIMITED, priority 2011, dated 2016).

Legend:
[1] = test system: Clostridium autoethanogenum DSM23693; experiment: Toxicity of acetone and isopropanol on growing cultures; format: cell-based; settings: at concentrations as high as 5%
Text: Several metabolites such as alcohols (ethanol and butanol) or acids (acetic acid and butyric acid) are known to be toxic for bacteria in high concentrations and thus limit their biotechnological production [Alsaker K V, Parades C, Papoutsakis E T: Metabolite stress and tolerance in the production of biofuels and chemicals—systems analysis of butanol, butyrate, and Acetate Stresses in the Anaerobe Clostridium acetobutylicum. Biotechnol Bioeng, 2009, 105: 1131-1147]. To see if acetone and isopropanol have a toxic effect on cultures, growth experiments were carried out in 50 ml PETC media (Table 2) in serum bottles, adding different concentrations of acetone (FIG. 12) and isopropanol (FIG. 13) to growing cultures of Clostridium autoethanogenum DSM23693.

[2] = test system: C. autoethanogenum DSM23693; experiment: Bottle growth experiments on CO-containing gas, acetone/isopropanol production from expression plasmids; format: cell-based, Clostridium autoethanogenum; settings: Organism C. autoethanogenum, Substrate CO; for Acetone (g/L): 'Detected' = by GC qualitatively
Description: HPLC analysis of acetone, isopropanol and other metabolites was performed using an Agilent 1100 Series HPLC system equipped with a RID operated at 35° C. (Refractive Index Detector) and an Alltech IOA-2000 Organic acid column (150×6.5 mm, particle size 5 μm) kept at 60° C. Slightly acidified water was used (0.005 M H2SO4) as mobile phase with a flow rate of 0.7 ml/min. To remove proteins and other cell residues, 400 μl samples were mixed with 100 μl of a 2% (w/v) 5-Sulfosalicylic acid and centrifuged at 14,000×g for 3 min to separate precipitated residues. 10 μl of the supernatant were then injected into the HPLC for analyses.
GC analysis of acetone, isopropanol and other metabolites was performed using an Agilent 6890N headspace GC equipped with a Supelco PDMS 100 1 cm fiber, an Alltech EC-1000 (30 m×0.25 mm×0.25 μm) column, and a flame ionization detector (FID). 5 ml samples were transferred into a Hungate tube, heated to 40° C. in a water bath and exposed to the fiber for exactly 5 min. The injector was kept at 250° C. and helium with a constant flow of 1 ml/min was used as carrier gas. The oven program was 40° C. for 5 min, followed by an increase of 10° C./min up to 200° C. The temperature was then further increased to 220° C. with a rate of 50° C./min followed by a 5 min hold this temperature, before the temperature was decreased to 40° C. with a rate of 50° C./min and a final 1 min hold. The FID was kept at 250° C. with 40 ml/min hydrogen, 450 ml/min air and 15 ml/min nitrogen as make up gas.
Growth experiments were carried out with transformed C. autoethanogenum DSM23693 and C. ljungdahlii DSM 13528 carrying plasmid pMTL85147-thlA-ctfAB-adc in 250 ml PETC media (Table 2; without fructose and yeast extract) in 1 l Schott bottles with rubber stoppers and 30 psi steel mill gas (collected from New Zealand Steel site in Glenbrook, NZ; composition: 44% CO, 32% N2, 22% CO2, 2% H2) in the headspace as sole energy and carbon source. Acetone production was confirmed with both strains using HPLC and GC analysis. […] Using appropriate conditions, the produced acetone can then be further converted to isopropanol.
Therefore, both cultures were re-gassed with 30 psi fresh steel-mill gas after 48 h of growth and also re-inoculated. While biomass didn't increase much further, some of the produced acetone got converted into isopropanol within 24 hours (Table 16).
(§1) Constructed expression plasmids pMTL85245-kivd-adh2 and pMTL85245-kivd were transformed into E. coli strain JW3350-2 and prepared for transformation in C. autoethanogenum DSM23693, which was performed as described above. […] In serum bottle experiments, highest isopropanol concentrations from CO-containing steel mill gas were 0.050-0.064 g/L for both expression plasmids (FIGS. 65 and 66).
(§2) All plasmid construct were tested in E. coli and C. autoethanogenum DSM23693 using serum bottle experiments with sugar (E. coli) or CO-containing steel mill gas (C. autoethanogenum) as sole substrate. With all combinations tested, acetone and isopropanol production was measured when expressed heterologously in C. autoethanogenum, while in E. coli acetone production only occurred with few combinations and an alcohol dehydrogenase gene was needed for isopropanol production (Table 21). […] In C. autoethanogenum, acetone and isopropanol production even occurred with expressing the decarboxylase as only heterologous gene, indicating CoA-transferase activity. FIG. 4 illustrates the proposed pathway and Table 21 of acetone and isopropanol formation from CO and FIG. 73 gives an overview of combinations of Clostridial pathway genes and codon-optimized genes for Alpha-ketoacid decarboxylase Kivd from L lactis and Alcohol dehydrogenase Adh2 from S. cerevisiae tested in E. coli and C. autoethanogenum.

E. coli = experiment: Serum bottle experiments with plasmid constructs, sugar as sole substrate; format: cell-based, Escherichia coli; settings: Organism E. coli, 'Detected' = by GC qualitatively
Description: as §1, §2

[3] = test system: Clostridium autoethanogenum DSM23693; experiment: Experiment A: continuous fermentation on steel mill gas; format: cell-based
Description: Clostridium autoethanogenum DSM23693 carrying the vector pMTL83147 thl-ctfAB-adc-adh2 was grown at 37° C. under mill gas (50% CO, 18% CO2, 2% H2, and 30% N2) was continuously fed into the bioreactor. The gas flow was initially set at 80 ml/min, increasing to 200 ml/min over the course of the experiment, while the agitation was increased from 250 rpm to 750 rpm. Na2S was dosed into the bioreactor at 0.20 ml/hr, increasing to 0.4 ml/hr. The bioreactor was switched to a continuous mode at a rate of 1.0 ml/min (Dilution rate 0.96 d^−1) once the OD600 reached 0.17.
Metabolites concentrations were measured using Agilent 1100 Series HPLC system equipped with a RID operated at 35° C. (Refractive Index Detector) and an Alltech IOA-2000 Organic acid column (150×6.5 mm, particle size 5 μm) kept at 60° C. The presence of Acetone and Isopropanol was also measured using Agilent 6890N headspace GC equipped with a Supelco PDMS 100 1 cm fiber, an Alltech EC-1000 (30 m×0.25 mm×0.25 μm) column, and a flame ionization detector (FID). The composition of the gas inflows and outflows was measured using a Varian CP-4900 micro GC with two installed channels. Channel 1 was a 10 m Mol-sieve column running at 70° C., 200 kPa argon and a backflush time of 4.2 s, while channel 2 was a 10 m PPQ column running at 90° C., 150 kPa helium and no backflush. The injector temperature for both channels was 70° C. Sampling of metabolites was performed daily. Gas analysis was automated and measured hourly.
The growth and metabolite profile of Clostridium autoethanogenum DSM23693 carrying the vector pMTL83147 thl-ctfAB-adc-adh2 in a continuous fermentation over 31 days is shown in FIG. 75. The fermentation ran as a batch fermentation from inoculation to day 6. At day 7 the fermentation was switched to continuous fermentation. The increase in acetate concentration coupled with a decrease in ethanol concentration during continuous fermentation seems to have triggered a significant increase in isopropanol production. […] A GC sample was taken during the run, at day 19.

[4] = test system: C. autoethanogenum DSM23693; experiment: Experiment B: bioreactor fermentation on corex gas with cell retention; format: cell-based, Clostridium autoethanogenum; settings: corex gas 40% CO, continuous mode with membrane cell retention
Description: Fermentations with C. autoethanogenum DSM23693 carrying the vector pMTL83147 thl-ctfAB-adc-adh2 were carried out in 1.5 L bioreactors at 37° C. and CO-containing steel mill gas. The fermenter was fed with corex gas (40% CO, 15% H2, 15% CO2, 30% N2) as sole energy and carbon source as described below. A defined medium was used containing per litre: MgCl, CaCl2 (0.5 mM), KCl (3 mM), H3PO4 (5 mM), Fe (100 μM), Ni, Zn (5 μM), Mn, B, W, Mo, Se (2 μM) was prepared for culture growth. The media was transferred into the bioreactor and autoclaved at 121° C. for 45 minutes. After autoclaving, the medium was supplemented with Thiamine, Pantothenate (0.05 mg), Biotin (0.02 mg) and reduced with 3 mM Cysteine-HCl. To achieve anaerobic conditions the reactor vessel was sparged with nitrogen through a 0.2 μm filter. […]
Metabolites concentrations were measured using Agilent 1100 Series HPLC system equipped with a RID operated at 35° C. […] The presence of Acetone and Isopropanol was also measured using Agilent 6890N headspace GC equipped with a Supelco PDMS 100 1 cm fiber, an Alltech EC-1000 (30 m×0.25 mm×0.25 μm) column, and a flame ionization detector (FID). The composition of the gas inflows and outflows was measured using a Varian CP-4900 micro GC with two installed channels. […] Gas analysis was automated and measured hourly.

[5] = continuous fermentation over 31 days, mill gas 50% CO

Compound | inhibition of growth rate [1] | Isopropanol [2] [g/L] | Acetone (g/L) [2] | Acetone (E. coli) [g/L] | also measured
CC(C)=O [acetone] | only slight inhibition of growth rate |  |  |  | 
CC(C)O [isopropanol] | only slight inhibition of growth rate |  |  |  | 
pMTL83147-thlA-ctfAB-adc-P-kivd-adh2: expression plasmid with thlA, ctfAB, adc and Ppta-ack-kivd-adh2, Seq. ID. 101 |  | 0.043 | Detected | 0.076 | 
pMTL83147-thlA-ctfAB-adc-adh2: expression plasmid with thlA, ctfAB, adc and Adh2 from S. cerevisiae, Seq. ID. No. 98 |  | 0.648 | Detected | 0.040 | presence of the plasmid by PCR ([3]; checked regularly throughout the fermentation): found to be present throughout the fermentation; Isopropanol production rate [3, 5]: 0.7 g per litre per day; isopropanol concentration reached [3, 5]: 0.250 g per litre; isopropanol concentration reached [4]: 0.37 g per Litre
pMTL85147-thlA-ctfAB-adc-kivd: combination plasmid of Clostridial genes and kivd as labelled in Table 21; probably Seq. ID. No. 95 |  | 0.091 | Detected |  | Acetone (g/L) (E. coli): Detected
